Results from ChEMBL document CHEMBL4229524, “Design, synthesis and preclinical evaluation of 5-methyl-N4-aryl-furo[2,3-d]pyrimidines as single agents with combination chemotherapy potential” (Bioorg Med Chem Lett, 2018).
Active and inactive are the calls of the source. The calls are words filed in the database; no cut-off is given here.

Experiments:
Mus musculus [1] = experiment: Toxicity in athymic nude mouse xenografted with human A498 cells assessed as body weight at 25 mg/kg, ip q2d for 19 days measured post last dose relative to control; assay type: organism-based; details: in vivo, 456 h
SF-295 [2] = experiment: Antitumor activity against human SF295 cells xenografted in ip dosed mouse assessed as reduction in cell viability administered daily for 4 days starting from 3 to 4 days post implantation measured post last dose by MTT based in-vivo hollow fiber assay; assay type: functional, organism-based
NCI-H23 [3] = experiment: Antitumor activity against human NCI-H23 cells xenografted in sc dosed mouse assessed as reduction in cell viability administered daily for 4 days starting from 3 to 4 days post implantation measured post last dose by MTT based in-vivo hollow fiber assay; assay type: functional, organism-based
SF-295 [4] = experiment: Antitumor activity against human SF295 cells xenografted in sc dosed mouse assessed as reduction in cell viability administered daily for 4 days starting from 3 to 4 days post implantation measured post last dose by MTT based in-vivo hollow fiber assay; assay type: functional, organism-based
UACC-62 [5] = experiment: Antitumor activity against human UACC62 cells xenografted in sc dosed mouse assessed as reduction in cell viability administered daily for 4 days starting from 3 to 4 days post implantation measured post last dose by MTT based in-vivo hollow fiber assay; assay type: functional, organism-based
A-431 = experiment: Cytotoxicity against human A431 cells over-expressing EGFR; assay type: functional, cell-based
NCI-H522 [6] = experiment: Antitumor activity against human NCI-H522 cells xenografted in ip dosed mouse assessed as reduction in cell viability administered daily for 4 days starting from 3 to 4 days post implantation measured post last dose by MTT based in-vivo hollow fiber assay; assay type: functional, organism-based
Chorioallantoic membrane = experiment: Antiangiogenic activity in Leghorn chicken embryo chorioallantoic membrane after 40 hrs by microscopic analysis; assay type: functional, tissue-based; details: Gallus gallus
U-251 [7] = experiment: Antitumor activity against human U251 cells xenografted in ip dosed mouse assessed as reduction in cell viability administered daily for 4 days starting from 3 to 4 days post implantation measured post last dose by MTT based in-vivo hollow fiber assay; assay type: functional, organism-based
[8] = biological target: T1, Vascular endothelial growth factor receptor 2 (Homo sapiens, UniProt P35968); experiment: Potency index, ratio of sunitinib IC50 to test compound IC50 for VEGF-induced VEGFR2 activation in human U251 cells; assay type: cell-based
T1 sequence (P35968 whole entry): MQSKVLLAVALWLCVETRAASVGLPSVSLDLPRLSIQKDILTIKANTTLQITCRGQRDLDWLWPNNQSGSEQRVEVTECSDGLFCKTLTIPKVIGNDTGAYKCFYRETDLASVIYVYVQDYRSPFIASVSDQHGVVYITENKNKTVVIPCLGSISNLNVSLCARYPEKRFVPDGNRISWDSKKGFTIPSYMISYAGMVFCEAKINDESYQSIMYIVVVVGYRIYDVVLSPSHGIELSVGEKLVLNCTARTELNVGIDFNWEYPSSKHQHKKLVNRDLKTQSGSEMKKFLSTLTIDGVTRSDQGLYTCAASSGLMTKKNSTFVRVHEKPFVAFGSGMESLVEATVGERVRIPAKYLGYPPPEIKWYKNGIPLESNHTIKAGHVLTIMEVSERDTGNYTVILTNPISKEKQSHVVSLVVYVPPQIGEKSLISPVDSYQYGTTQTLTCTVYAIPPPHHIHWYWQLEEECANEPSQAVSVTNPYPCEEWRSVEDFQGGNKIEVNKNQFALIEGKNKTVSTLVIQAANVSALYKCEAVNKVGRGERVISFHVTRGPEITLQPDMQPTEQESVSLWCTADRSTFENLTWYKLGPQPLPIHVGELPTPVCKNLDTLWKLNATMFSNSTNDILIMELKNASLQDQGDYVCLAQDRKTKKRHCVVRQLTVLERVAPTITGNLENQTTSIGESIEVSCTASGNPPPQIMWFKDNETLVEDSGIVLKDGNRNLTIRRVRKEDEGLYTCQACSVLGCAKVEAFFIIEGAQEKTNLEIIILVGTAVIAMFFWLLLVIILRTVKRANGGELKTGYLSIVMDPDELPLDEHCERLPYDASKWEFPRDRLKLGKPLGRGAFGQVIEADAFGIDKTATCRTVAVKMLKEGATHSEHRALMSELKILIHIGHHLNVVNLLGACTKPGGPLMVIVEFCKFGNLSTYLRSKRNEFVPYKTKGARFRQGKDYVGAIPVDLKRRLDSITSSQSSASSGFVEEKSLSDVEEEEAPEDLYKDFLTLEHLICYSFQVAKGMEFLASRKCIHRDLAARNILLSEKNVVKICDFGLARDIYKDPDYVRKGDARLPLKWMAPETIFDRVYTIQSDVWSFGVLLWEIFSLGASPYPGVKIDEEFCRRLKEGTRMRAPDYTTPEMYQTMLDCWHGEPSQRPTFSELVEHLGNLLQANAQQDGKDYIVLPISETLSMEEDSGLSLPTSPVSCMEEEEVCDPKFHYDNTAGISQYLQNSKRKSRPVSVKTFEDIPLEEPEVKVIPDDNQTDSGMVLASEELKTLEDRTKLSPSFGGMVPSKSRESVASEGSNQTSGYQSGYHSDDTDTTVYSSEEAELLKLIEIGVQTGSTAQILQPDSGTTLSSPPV

Mus musculus [9] = experiment: Toxicity in athymic nude mouse xenografted with human A498 cells assessed as body weight at 25 mg/kg, ip qd for 19 days measured post last dose relative to control; assay type: organism-based; details: in vivo, 456 h
SW-620 [10] = experiment: Antitumor activity against human SW620 cells xenografted in sc dosed mouse assessed as reduction in cell viability administered daily for 4 days starting from 3 to 4 days post implantation measured post last dose by MTT based in-vivo hollow fiber assay; assay type: functional, organism-based
OVCAR-5 [11] = experiment: Antitumor activity against human OVCAR5 cells xenografted in sc dosed mouse assessed as reduction in cell viability administered daily for 4 days starting from 3 to 4 days post implantation measured post last dose by MTT based in-vivo hollow fiber assay; assay type: functional, organism-based
Mus musculus [12] = experiment: Toxicity in athymic nude mouse xenografted with human A498 cells assessed as body weight at 25 mg/kg, ip q3d for 19 days measured post last dose relative to control; assay type: organism-based; details: in vivo, 456 h
OVCAR-3 [13] = experiment: Antitumor activity against human OVCAR3 cells xenografted in sc dosed mouse assessed as reduction in cell viability administered daily for 4 days starting from 3 to 4 days post implantation measured post last dose by MTT based in-vivo hollow fiber assay; assay type: functional, organism-based
COLO 205 [14] = experiment: Antitumor activity against human COLO205 cells xenografted in ip dosed mouse assessed as reduction in cell viability administered daily for 4 days starting from 3 to 4 days post implantation measured post last dose by MTT based in-vivo hollow fiber assay; assay type: functional, organism-based
MDA-MB-231 [15] = experiment: Antitumor activity against human MDA-MB-231 cells xenografted in ip dosed mouse assessed as reduction in cell viability administered daily for 4 days starting from 3 to 4 days post implantation measured post last dose by MTT based in-vivo hollow fiber assay; assay type: functional, organism-based
[16] = biological target: Epidermal growth factor receptor (Homo sapiens, UniProt P00533); assay type: cell-based
Chain of Epidermal growth factor receptor (P00533 whole entry): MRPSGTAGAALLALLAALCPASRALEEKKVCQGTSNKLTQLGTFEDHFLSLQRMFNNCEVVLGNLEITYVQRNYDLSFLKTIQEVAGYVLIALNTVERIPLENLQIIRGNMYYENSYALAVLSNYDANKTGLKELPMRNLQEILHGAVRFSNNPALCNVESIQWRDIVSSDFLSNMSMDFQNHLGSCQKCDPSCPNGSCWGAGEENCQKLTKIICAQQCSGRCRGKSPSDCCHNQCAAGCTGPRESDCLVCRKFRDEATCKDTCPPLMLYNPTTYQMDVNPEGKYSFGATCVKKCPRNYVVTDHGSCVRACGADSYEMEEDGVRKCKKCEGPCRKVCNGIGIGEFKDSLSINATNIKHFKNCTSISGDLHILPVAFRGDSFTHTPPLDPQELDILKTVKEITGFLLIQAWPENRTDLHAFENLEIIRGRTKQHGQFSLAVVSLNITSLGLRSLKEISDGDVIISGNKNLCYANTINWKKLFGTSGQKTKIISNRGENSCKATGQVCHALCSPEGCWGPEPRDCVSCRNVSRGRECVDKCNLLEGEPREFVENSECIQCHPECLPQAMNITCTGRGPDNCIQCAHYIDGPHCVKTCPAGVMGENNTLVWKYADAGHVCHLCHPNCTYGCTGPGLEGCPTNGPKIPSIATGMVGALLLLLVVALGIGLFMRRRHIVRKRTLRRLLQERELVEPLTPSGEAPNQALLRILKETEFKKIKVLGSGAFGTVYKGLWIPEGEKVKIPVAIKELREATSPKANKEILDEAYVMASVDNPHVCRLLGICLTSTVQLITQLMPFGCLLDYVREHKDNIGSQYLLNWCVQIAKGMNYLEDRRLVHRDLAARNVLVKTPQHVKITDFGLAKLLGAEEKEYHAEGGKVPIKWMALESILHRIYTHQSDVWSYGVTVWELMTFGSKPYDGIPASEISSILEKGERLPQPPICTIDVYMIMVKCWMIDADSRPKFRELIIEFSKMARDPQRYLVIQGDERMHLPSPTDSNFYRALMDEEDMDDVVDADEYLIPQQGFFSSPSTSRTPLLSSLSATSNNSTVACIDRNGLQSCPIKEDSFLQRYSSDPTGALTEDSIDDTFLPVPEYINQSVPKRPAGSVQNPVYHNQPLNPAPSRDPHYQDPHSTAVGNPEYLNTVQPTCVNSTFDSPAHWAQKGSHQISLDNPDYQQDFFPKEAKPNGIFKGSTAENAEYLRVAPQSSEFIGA

MDA-MB-435 [17] = experiment: Antitumor activity against human MDA-MB-435 cells xenografted in ip dosed mouse assessed as reduction in cell viability administered daily for 4 days starting from 3 to 4 days post implantation measured post last dose by MTT based in-vivo hollow fiber assay; assay type: functional, organism-based
UACC-62 [18] = experiment: Antitumor activity against human UACC62 cells xenografted in ip dosed mouse assessed as reduction in cell viability administered daily for 4 days starting from 3 to 4 days post implantation measured post last dose by MTT based in-vivo hollow fiber assay; assay type: functional, organism-based
COLO 205 [19] = experiment: Antitumor activity against human COLO205 cells xenografted in sc dosed mouse assessed as reduction in cell viability administered daily for 4 days starting from 3 to 4 days post implantation measured post last dose by MTT based in-vivo hollow fiber assay; assay type: functional, organism-based
U-251 [20] = experiment: Antitumor activity against human U251 cells xenografted in sc dosed mouse assessed as reduction in cell viability administered daily for 4 days starting from 3 to 4 days post implantation measured post last dose by MTT based in-vivo hollow fiber assay; assay type: functional, organism-based
COLO 205 [21] = experiment: Antitumor activity against human COLO205 cells xenografted in athymic nude mouse; assay type: functional, cell-based
Mus musculus [22] = experiment: Toxicity in athymic nude mouse assessed as survival at 12.5 to 50 mg/kg, po administered as single dose; assay type: organism-based; details: in vivo
NCI-H23 [23] = experiment: Antitumor activity against human NCI-H23 cells xenografted in ip dosed mouse assessed as reduction in cell viability administered daily for 4 days starting from 3 to 4 days post implantation measured post last dose by MTT based in-vivo hollow fiber assay; assay type: functional, organism-based
OVCAR-3 [24] = experiment: Antitumor activity against human OVCAR3 cells xenografted in ip dosed mouse assessed as reduction in cell viability administered daily for 4 days starting from 3 to 4 days post implantation measured post last dose by MTT based in-vivo hollow fiber assay; assay type: functional, organism-based
Mus musculus [25] = experiment: Toxicity in athymic nude mouse assessed as death at 250 to 500 mg/kg, po administered as single dose measured after 1 day; assay type: organism-based; details: in vivo, 24 h
[26] = biological target: T1, Vascular endothelial growth factor receptor 2; assay type: cell-based
Mus musculus [27] = experiment: Toxicity in athymic nude mouse assessed as death at 100 mg/kg, po administered as single dose measured after 4 days; assay type: organism-based; details: in vivo, 96 h
OVCAR-5 [28] = experiment: Antitumor activity against human OVCAR5 cells xenografted in ip dosed mouse assessed as reduction in cell viability administered daily for 4 days starting from 3 to 4 days post implantation measured post last dose by MTT based in-vivo hollow fiber assay; assay type: functional, organism-based
SW-620 [29] = experiment: Antitumor activity against human SW620 cells xenografted in ip dosed mouse assessed as reduction in cell viability administered daily for 4 days starting from 3 to 4 days post implantation measured post last dose by MTT based in-vivo hollow fiber assay; assay type: functional, organism-based
[30] = biological target: T2, Platelet-derived growth factor receptor beta (Homo sapiens, UniProt P09619); experiment: Potency index, ratio of sunitinib IC50 to test compound IC50 for PDGF-BB-induced PDGFRbeta activation in human SH-SY5Y cells; assay type: cell-based
T2 sequence (P09619 whole entry): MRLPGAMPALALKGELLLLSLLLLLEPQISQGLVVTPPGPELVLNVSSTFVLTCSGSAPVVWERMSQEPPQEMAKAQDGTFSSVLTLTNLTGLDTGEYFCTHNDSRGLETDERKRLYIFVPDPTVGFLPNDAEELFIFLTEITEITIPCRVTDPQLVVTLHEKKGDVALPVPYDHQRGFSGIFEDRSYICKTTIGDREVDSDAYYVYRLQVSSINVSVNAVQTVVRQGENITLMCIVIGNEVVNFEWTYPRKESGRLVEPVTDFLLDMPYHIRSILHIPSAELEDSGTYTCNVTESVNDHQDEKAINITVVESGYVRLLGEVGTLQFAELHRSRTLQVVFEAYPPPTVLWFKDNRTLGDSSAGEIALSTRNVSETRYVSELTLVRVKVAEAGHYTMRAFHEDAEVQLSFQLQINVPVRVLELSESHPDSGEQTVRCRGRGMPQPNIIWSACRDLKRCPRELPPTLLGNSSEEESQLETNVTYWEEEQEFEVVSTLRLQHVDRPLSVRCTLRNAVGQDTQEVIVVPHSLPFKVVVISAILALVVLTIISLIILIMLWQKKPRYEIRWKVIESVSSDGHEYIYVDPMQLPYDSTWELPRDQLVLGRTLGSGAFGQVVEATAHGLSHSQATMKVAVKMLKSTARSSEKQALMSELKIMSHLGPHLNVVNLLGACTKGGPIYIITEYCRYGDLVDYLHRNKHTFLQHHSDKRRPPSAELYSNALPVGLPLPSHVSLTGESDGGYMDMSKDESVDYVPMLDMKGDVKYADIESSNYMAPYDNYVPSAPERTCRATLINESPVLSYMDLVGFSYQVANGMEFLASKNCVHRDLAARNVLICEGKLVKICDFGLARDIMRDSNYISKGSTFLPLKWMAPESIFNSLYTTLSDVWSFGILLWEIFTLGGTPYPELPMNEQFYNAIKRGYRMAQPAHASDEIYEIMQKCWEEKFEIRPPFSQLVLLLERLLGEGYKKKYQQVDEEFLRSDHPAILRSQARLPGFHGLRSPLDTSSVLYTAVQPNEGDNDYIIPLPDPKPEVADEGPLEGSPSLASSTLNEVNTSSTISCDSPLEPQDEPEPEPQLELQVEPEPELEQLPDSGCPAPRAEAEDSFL

MDA-MB-435 [31] = experiment: Antitumor activity against human MDA-MB-435 cells xenografted in sc dosed mouse assessed as reduction in cell viability administered daily for 4 days starting from 3 to 4 days post implantation measured post last dose by MTT based in-vivo hollow fiber assay; assay type: functional, organism-based
A498 [32] = experiment: Antitumor activity against human A498 cells xenografted in athymic nude mouse assessed as reduction in tumor volume at 25 mg/kg, ip qd for 19 days measured post last dose up to 40 days; assay type: functional; design: scale not given: the % may be the effect or the level left
Homo sapiens [33] = experiment: Antitumor activity against human LOX cells xenografted in sc dosed mouse assessed as reduction in cell viability administered daily for 4 days starting from 3 to 4 days post implantation measured post last dose by MTT based in-vivo hollow fiber assay; assay type: functional, organism-based
[34] = biological target: T2, Platelet-derived growth factor receptor beta; experiment: Inhibition of PDGF-BB-induced PDGFRbeta activation in human SH-SY5Y cells pretreated for 60 mins followed by PDGF-BB addition and measured after 10 mins by ELISA; assay type: cell-based
NCI-H522 [35] = experiment: Antitumor activity against human NCI-H522 cells xenografted in athymic nude mouse; assay type: functional, cell-based
MDA-MB-231 [36] = experiment: Antitumor activity against human MDA-MB-231 cells xenografted in sc dosed mouse assessed as reduction in cell viability administered daily for 4 days starting from 3 to 4 days post implantation measured post last dose by MTT based in-vivo hollow fiber assay; assay type: functional, organism-based
A498 [37] = experiment: Antitumor activity against human A498 cells xenografted in athymic nude mouse assessed as reduction in tumor volume at 25 mg/kg, ip q3d for 19 days measured post last dose up to 40 days; assay type: functional; design: scale not given: the % may be the effect or the level left
NCI-H522 [38] = experiment: Antitumor activity against human NCI-H522 cells xenografted in sc dosed mouse assessed as reduction in cell viability administered daily for 4 days starting from 3 to 4 days post implantation measured post last dose by MTT based in-vivo hollow fiber assay; assay type: functional, organism-based
Homo sapiens [39] = experiment: Antitumor activity against human LOX cells xenografted in ip dosed mouse assessed as reduction in cell viability administered daily for 4 days starting from 3 to 4 days post implantation measured post last dose by MTT based in-vivo hollow fiber assay; assay type: functional, organism-based
A498 [40] = experiment: Antitumor activity against human A498 cells xenografted in athymic nude mouse assessed as reduction in tumor volume at 25 mg/kg, ip q2d for 19 days measured post last dose up to 40 days; assay type: functional; design: scale not given: the % may be the effect or the level left
[41] = Antiproliferative activity against human SKOV3-MDR1-M6/6 cells after 72 hrs by sulforhodamine B assay; assay type: functional; details: SKOV3-MDR1-M6/6, 72 h
[42] = Resistance index, ratio of IC50 for human HeLa cells to IC50 for human wild-type Hela-beta3 cells; assay type: functional
Bos taurus [43] = species on record: Bos taurus; experiment: Inhibition of [3H]colchicine binding to bovine brain tubulin at 5 uM measured after 10 mins relative to control
MDA-MB-435 [44] = experiment: Antiproliferative activity against human MDA-MB-435 cells after 72 hrs by sulforhodamine B assay; assay type: functional, cell-based; details: MDA-MB-435, 72 h
A10 = experiment: Induction of microtubule depolymerization in rat A10 cells after 18 hrs by indirect immunofluorescence method; assay type: functional, cell-based; details: A10, 18 h
Bos taurus [45] = species on record: Bos taurus; experiment: Inhibition of [3H]colchicine binding to bovine brain tubulin at 1 uM measured after 10 mins relative to control
[46] = Resistance index, ratio of IC50 for human SKOV3-MDR1-M6/6 cells to IC50 for human SKOV3 cells; assay type: functional
[47] = Inhibition of bovine brain tubulin assembly pretreated for 15 mins followed by GTP addition by spectrophotometric method; design: species or system Bos taurus
[48] = Antiproliferative activity against human wild-type Hela-beta3 cells after 72 hrs by sulforhodamine B assay; assay type: functional
HeLa = experiment: Antiproliferative activity against human HeLa cells after 72 hrs by sulforhodamine B assay; assay type: functional, cell-based
SK-OV-3 = experiment: Antiproliferative activity against human SKOV3 cells after 72 hrs by sulforhodamine B assay; assay type: functional, cell-based; details: SK-OV-3, 72 h

Structure (SMILES): COc1ccc(N(C)c2ncnc3occ(C)c23)cc1
- T/C (Mus musculus [1]): 38%
- Activity (SF-295 [2]): Active
- Activity (NCI-H23 [3]): Active
- Activity (SF-295 [4]): Active
- Activity (UACC-62 [5]): Active
- IC50 (A-431): 5.1 nM
- Activity (NCI-H522 [6]): Active
- IC50 (Chorioallantoic membrane): 80 nM
- Activity (U-251 [7]): Active
- Ratio IC50 [8]: 2
- T/C (Mus musculus [9]): 47%
- Activity (SW-620 [10]): Active
- Activity (OVCAR-5 [11]): Active
- T/C (Mus musculus [12]): 71%
- Activity (OVCAR-3 [13]): Active
- Activity (COLO 205 [14]): Active
- Activity (MDA-MB-231 [15]): Active
- IC50 [16]: 15.5 nM
- Activity (MDA-MB-435 [17]): Active
- Activity (UACC-62 [18]): Active
- Activity (COLO 205 [19]): Active
- Activity (U-251 [20]): Active
- Activity (COLO 205 [21]): inactive
- MSD (Mus musculus [22]): 15 days
- Activity (NCI-H23 [23]): Active
- Activity (OVCAR-3 [24]): Active
- Activity (Mus musculus [25]): Toxic
- IC50 [26]: 9.3 nM
- Activity (Mus musculus [27]): Toxic
- Activity (OVCAR-5 [28]): Active
- Activity (SW-620 [29]): Active
- Ratio IC50 [30]: 7
- Activity (MDA-MB-435 [31]): Active
- Activity (A498 [32]): 25 - 50%
- Activity (Homo sapiens [33]): Active
- IC50 [34]: 12.3 nM
- Activity (NCI-H522 [35]): inactive
- Activity (MDA-MB-231 [36]): Active
- Activity (A498 [37]): 25 - 50%
- Activity (NCI-H522 [38]): Active
- Activity (Homo sapiens [39]): Active
- Activity (A498 [40]): 25 - 50%

Structure (SMILES): Cc1coc2ncnc(N(C)c3ccc(N(C)C)cc3)c12
- IC50 [41]: 91 nM
- IC50 (A-431): 1 nM
- IC50 (Chorioallantoic membrane): 653 nM
- Ratio IC50 [42]: 1
- inhibition (Bos taurus [43]): 86%
- IC50 [16]: 3.1 nM
- IC50 (MDA-MB-435 [44]): 44 nM
- EC50 (A10): 140 nM
- inhibition (Bos taurus [45]): 59%
- Ratio IC50 [46]: 1.3
- IC50 [47]: 1100 nM
- IC50 [48]: 60 nM
- IC50 [26]: 15.6 nM
- IC50 (HeLa): 58 nM
- IC50 [34]: 63 nM
- IC50 (SK-OV-3): 70 nM
